Assay results from patent EP4772514A1, “MACROCYCLIC COMPOUNDS, PREPARATION METHOD THEREFOR, AND USE THEREOF” (Genfleet Therapeutics (Shanghai) Inc., priority 2023, dated 2025).
Where a name gives a salt, the structure may show the parent alone. Read-outs that look alike come from different tables or passages of the source.

Columns and labels:
p-ERK = experiment: Cell p-ERK assay (HTRF, Advance ERK phospho-T202/Y204 kit) in NCI-H441 cells; format: cell-based; details: NCI-H441, human non-small cell lung cancer cell strain, KRAS G12V mutation, 3 h compound incubation
Method: AsPC-1 cells were purchased from ATCC, Cat. No. CRL-1682; NCI-H441 cells were purchased from ATCC, Cat. No. HTB-174; RPMI-1640 medium was purchased from Gibco, Cat. No. 11875-093; FBS was purchased from Gibco, Cat. No. 10099-141C; penicillin/streptomycin double-antibiotic solution (PS) was purchased from Gibco, Cat. No. 15140-122; trypsin (containing EDTA) was purchased from Gibco, Cat. No. 25200-072; DMSO was purchased from VWRAMRESCO, Cat. No. 0231-500ML; 96-well cell culture plates were purchased from Corning, Cat. No. 3599; white-bottomed, opaque 96-well plates were purchased from Cisbio, Cat. No. 66PL96025; Advance ERK phospho-T202/Y204 kit was purchased from Cisbio, Cat. No. 64AERPEH; cell counter was purchased from CHEMOMETEC, model: NC-200; microplate reader was purchased from PerkinElmer, model: EnVision.
AsPC-1, a human pancreatic cancer cell strain endogenously containing a KRAS^G12D mutation, was cultured in a complete medium containing RPMI-1640 + 10% FBS + 1% PS. NCI-H441, a human non-small cell lung cancer cell strain endogenously containing a KRAS^G12V mutation, was cultured in a complete medium containing RPMI-1640 + 10% FBS + 1% PS.
The cells were digested with trypsin (containing EDTA), collected in their corresponding complete media, and counted. The density of the cell suspensions was adjusted with their corresponding complete media, and AsPC-1 cells (10000 cells/well) or NCI-H441 cells (20000 cells/well) were seeded into a 96-well cell culture plate, with the volume of the medium in each well being 80 µL. The cell culture plate was incubated in an incubator at 37 °C with 5% CO2 overnight. A series of 3.16-fold gradient dilutions of a 1000× compound stock solution were prepared with DMSO, and then diluted 200-fold with the complete medium described above to give 5× compound stock solutions. On the day after cell seeding, 20 µL of the 5× compound stock solution was added to each cell culture well. As a result, the final concentration of the compound in the cell culture well became 1×, and the DMSO content in the well was 0.1%. In addition to the compound-treated wells described above, cell-containing DMSO control wells were also set. A complete medium containing 0.5% DMSO was added at 20 µL/well. After the mixture was well mixed, the culture plate was incubated in the incubator at 37 °C with 5% CO2 for another 3 h. The medium was then removed from the culture wells, and 50 µL of cell lysis buffer (from Advance ERK phospho-T202/Y204 kit) was added to each well. The mixture was well mixed, incubated for 30 min, and then transferred to a white-bottomed, opaque 96-well assay plate at 16 µL/well, and separately, 16 µL of cell lysis buffer was added to additional wells (serving as blank wells) in the assay plate. After the transfer was completed, 4 µL of p-ERK HTRF antibody mixture (from Advance ERK phospho-T202/Y204 kit) was added to each well of the assay plate, followed by a 4-hour incubation. The HTRF signal values (RLU) were then measured using a microplate reader, and the inhibition rate of the compound against p-ERK levels was calculated as follows: IR(%) = (RLUDMSO - RLUcompound)/(RLUDMSO - RLUblank) × 100%, where RLUDMSO is the average HTRF signal value from the DMSO control well samples, RLU is the average HTRF signal value from the blank well samples, and RLUcompound is the HTRF signal value from the compound-treated well samples. Using an XLfit software, the IR(%) values were plotted against the logarithm of the compound concentrations, and the dose-response curves were fitted using the four-parameter method to calculate the IC50 values.

NCI-H441 cells = experiment: 3D cell proliferation assay (CellTiter Glo-3D) in NCI-H441 cells; format: cell-based; details: NCI-H441, human lung cancer cell strain, KRAS G12V mutation, 3D culture, 2% FBS, 5 days, read-out: H441 AP IC50
Excerpt: MIA PaCa-2 cells were purchased from ATCC, Cat. No. CRL-1420; AsPC-1 cells were purchased from ATCC, Cat. No. CRL-1682; NCI-H441 cells were purchased from ATCC, Cat. No. HTB-174; NCI-H1975 cells were purchased from ATCC, Cat. No. CRL-5908; DMEM medium was purchased from Gibco, Cat. No. 11995-065; RPMI-1640 medium was purchased from Gibco, Cat. No. 11875-093; FBS was purchased from Gibco, Cat. No. 10099-141C; penicillin/streptomycin double-antibiotic solution (PS) was purchased from Gibco, Cat. No. 15140-122; Horse serum was purchased from Gibco, Cat. No. 16050130; trypsin (containing EDTA) was purchased from Gibco, Cat. No. 25200-072; DMSO was purchased from VWRAMRESCO, Cat. No. 0231-500ML; 384-well cell culture plates were purchased from Corning, Cat. No. 3830; white-bottomed, opaque 384-well assay plates were purchased from Corning, Cat. No. 3570; CellTiter Glo-3D kit was purchased from Promega, Cat. No. G9683; cell counter was purchased from CHEMOMETEC, model: NC-200; microplate reader was purchased from PerkinElmer, model: EnVision.
MIA PaCa-2, a human pancreatic cancer cell strain endogenously containing a KRAS^G12Cmutation, was cultured in a complete medium containing DMEM + 10% FBS + 2.5% Horse serum + 1% PS. AsPC-1, a human pancreatic cancer cell strain endogenously containing a KRAS^G12D mutation, was cultured in a complete medium containing RPMI-1640 + 10% FBS + 1% PS. NCI-H441 cells, a human lung cancer cell strain endogenously containing a KRAS^G12V mutation, were cultured in a complete medium containing RPMI-1640 + 10% FBS + 1% PS. NCI-H1975, a KRAS wild-type human lung cancer cell strain whose cell proliferation […], was cultured in a complete medium containing RPMI-1640 + 10% FBS + 1% PS.
The cells were digested with trypsin (containing EDTA), collected in their respective low-serum complete media containing 2% FBS (for MIA Paca-2 cell culture: DMEM + 2% FBS + 0.5% Horse serum + 1% PS), and counted. After the cell density was adjusted as required, MIA PaCa-2 cells (200 cells/well), AsPC-1 cells (800 cells/well), NCI-H441 cells (800 cells/well), or NCI-H1975 cells (400 cells/well) were seeded into a 384-well cell culture plate, with the volume of the medium in each well being 45 µL. The cell culture plate was incubated in an incubator at 37 °C with 5% CO2 overnight. A series of 3.16-fold gradient dilutions of a 1000× compound stock solution were prepared with DMSO, and then diluted 100-fold with the complete medium containing 2% FBS described above to give 10× compound stock solutions. On the day after cell seeding, 5 µL of the 10× compound stock solution was added to each cell culture well. As a result, the final concentration of the compound in the cell culture well became 1×, and the DMSO content in the well was 0.1%. In addition to the compound-treated wells described above, cell-containing DMSO control wells (with 5 µL of the complete medium containing 1% DMSO added to each well) and cell-free medium control wells (containing 50 µL of the complete medium with 2% FBS) were also set. The culture plate was incubated in an incubator at 37 °C with 5% CO2 for another 5 days, and then 30 µL of CellTiter-Glo working solution was added to each well. The mixture was well mixed, incubated for 30 min, left to stand at room temperature for 30 min, and then transferred to a white-bottomed, opaque 384-well assay plate at 40 µL/well. The chemiluminescence values (RLU) were measured using a microplate reader, and the cell proliferation inhibition rate for each well was calculated: IR(%) = (RLUDMSO - RLUcompound)/(RLUDMSO - RLUblank) × 100%, where RLUDMSO is the average RLU signal value from the DMSO control well samples, RLUblank is the average RLU signal value from the medium control well samples, and RLUcompound is the RLU signal value from the compound-treated well samples. […]

IC50 (p-ERK; Homo sapiens, NCI-H441, 3 h) | IC50 (NCI-H441 cells; Homo sapiens, NCI-H441, 120 h) | IC50 (NCI-H441 cells) | Compound | IC50 (p-ERK) | IC50 (NCI-H441 cells; 120 h)
– | – | – | CCn1nc2c(c1-c1cc(C#CCN3CCS(=O)(=O)CC3)cnc1[C@H](C)OC)CC(C)(C)COC(=O)[C@@H]1CCCN(N1)C(=O)[C@@H](NC(=O)[C@@H]1CCCN1Cc1ccccc1)Cc1nc(cs1)/C=C/2 (atropisomer, axis not shown; (Ra)) [Compound Z48, (2S)-1-benzyl-N-((4^2Z,8^3S,2E,6S)-(Ra)-1^5-(5-(3-(1,1-dioxothiomorpholine)-1-prop-1-yn-1-yl)-2-((S)-1-methoxyethyl)pyridin-3-yl)-1^1-ethyl-12,12-dimethyl-7,9-dioxo-8^1,8^2,8^3,8^4,8^5,8^6-hexahydro-1^1H-10-oxa-4(4,2)-thiazola-8(1,3)-pyridazina-1(3,4)-pyrrolacyclotridecaphan-2-en-6-yl)pyrrolidine-2-carboxamide] | 78.6 nM | 123 nM
3.92 nM | 7.19 nM | – | CCn1c(OC)c2c(c1-c1cc(C#CCN3CCS(=O)(=O)CC3)cnc1[C@H](C)OC)CC(C)(C)COC(=O)[C@@H]1CCCN(N1)C(=O)[C@@H](NC(=O)[C@H]1[C@H](C)[C@@H]1C)Cc1nc(cs1)/C=C/2 (atropisomer, axis not shown; (Ra)) [Compound Z191, (1r,2R,3S)-N-((4^2Z,8^3S,2E,6S)-(Ra)-1^5-(5-(3-(1,1-dioxidothiomorpholino)prop-1-yn-1-yl)-2-((S)-1-methoxyethyl)pyridin-3-yl)-1^1-ethyl-1^2-methoxy-12,12-dimethyl-7,9-dioxo-8^1,8^2,8^3,8^4,8^5,8^6-hexahydro-1^1H-10-oxa-4(4,2)-thiazola-8(1,3)-pyridazina-1(3,4)-pyrrolacyclotridecaphan-2-en-6-yl)-2,3-dimethylcyclopropane-1-carboxamide] | – | –
3.97 nM | 18.9 nM | – | CCn1nc2c(c1-c1cc(C#CCN3CCS(=O)(=O)CC3)cnc1[C@H](C)OC)CC(C)(C)COC(=O)[C@@H]1CCCN(N1)C(=O)[C@@H](NC(=O)[C@H](C(C)C)N(C)c1ccc3ncn(C)c3c1)Cc1nc(cs1)/C=C/2 (atropisomer, axis not shown; (Ra)) [Compound Z115, (2S)-N-((4^2Z,8^3S,2E,6S)-1^5-(Ra)-(5-(3-(1,1-dioxidothiomorpholino)prop-1-yn-1-yl)-2-((S)-1-methoxyethyl)pyridin-3-yl)-1^1-ethyl-12,12-dimethyl-7,9-dioxo-8^1,8^2,8^3,8^4,8^5,8^6-hexahydro-1^1H-10-oxa-4(4,2)-thiazola-8(1,3)-pyridazina-1(3,4)-pyrazolocyclotridec-2-en-6-yl)-3-methyl-2-(methyl(1-methyl-1H-benzo[d]imidazol-6-yl)amino)butanamide] | – | –
– | – | 76.3 nM | CO[C@@H](C)c1ncc(C#CCN2CCS(=O)(=O)CC2)cc1-c1c2c(nn1C(C)C)/C=C/c1csc(n1)C[C@H](NC(=O)[C@H](Cc1cccc3ncccc13)C(C)C)C(=O)N1CCC[C@H](N1)C(=O)OCC(C)(C)C2 [Compound Z44-2, (2R)-N-((4^2Z,8^3S,2E,6S)-1^5-(5-(3-(1,1-dioxidothiomorpholino)prop-1-yn-1-yl)-2-((S)-1-methoxyethyl)pyridin-3-yl)-1^1-isopropyl-12,12-dimethyl-7,9-dioxo-8^1,8^2,8^3,8^4,8^5,8^6-hexahydro-1^1H-10-oxa-4(4,2)-thiazola-8(1,3)-pyridazina-1(3,4)-pyrazolocyclotridec-2-en-6-yl)-3-methyl-2-(quinolin-5-ylmethyl)butanamide formate] | 15.4 nM | –
182 nM | 115 nM | – | CCn1nc2c(c1-c1cc(C#CCN3CCS(=O)(=O)CC3)cnc1[C@H](C)OC)CC(C)(C)COC(=O)[C@@H]1CCCN(N1)C(=O)[C@@H](NC(=O)[C@@H](NC(=O)OC(C)(C)C)C(C)C)Cc1nc(cs1)/C=C/2 (atropisomer, axis not shown; (Ra)) [Compound Z53] | – | –
239 nM | 374 nM | – | CCn1c(-c2cc(N3CCN(C)CC3)cnc2[C@H](C)OC)c2c3cc(ccc31)NC(=O)OC[C@H](NC(=O)[C@H]1[C@H](C)[C@@H]1C)C(=O)N1CCC[C@H](N1)C(=O)OCC(C)(C)C2 (single isomer, unassigned) [Compound Z2-1] | – | –
